Where “and” joins values, the source holds several entries; their conditions need not be identical. Equal values may be shown once. Toxic doses and inconclusive results are not listed. Rule for the calls: active = survival T/C of 150% or more; inactive = T/C below 125% in these data.
System: P388 leukemia ip, CD2F1 mice, survival T/C
Assay: NCI In Vivo Anticancer Drug Screen. Data for tumor model P388 Leukemia (intraperitoneal) in CD2F1 (CDF1) mice
Conditions: endpoint: median survival time, higher = longer survival
Outline: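 Mice carrying the transplanted tumor received test compound or vehicle. Survival was recorded in each group, and the value is the treated-group measurement divided by that of the vehicle-treated control group.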

[1] = dose: 50.0 mg/kg/injection, schedule: Q01DX005 (ip), vehicle: saline with Tween-80
[2] = dose: 100.0 mg/kg/injection, schedule: Q01DX005 (ip), vehicle: saline with Tween-80
[3] = dose: 25.0 mg/kg/injection, schedule: Q01DX009 (ip), vehicle: saline with Tween-80
[4] = dose: 50.0 mg/kg/injection, schedule: Q01DX009 (ip), vehicle: saline
[5] = dose: 100.0 mg/kg/injection, schedule: Q01DX009 (ip), vehicle: saline
[6] = dose: 200.0 mg/kg/injection, schedule: Q01DX009 (ip), vehicle: saline with Tween-80
[7] = dose: 50.0 mg/kg/injection, schedule: Q01DX005 (ip), vehicle: saline
[8] = dose: 12.5 mg/kg/injection, schedule: Q01DX009 (ip), vehicle: saline with Tween-80
[9] = dose: 50.0 mg/kg/injection, schedule: Q01DX009 (ip), vehicle: saline with Tween-80
[10] = dose: 100.0 mg/kg/injection, schedule: Q01DX009 (ip), vehicle: saline with Tween-80

Measured: T/C

COC1c2ccccc2CC(c2ccccc2)=NN1C(C)=O (stereo not drawn)
inactive: dose: 60.0 mg/kg/injection, schedule: Q01DX005 (ip), vehicle: saline 100 % of control | dose: 120.0 mg/kg/injection, schedule: Q01DX005 (ip), vehicle: saline 102 % of control | dose: 240.0 mg/kg/injection, schedule: Q01DX005 (ip), vehicle: saline 97 % of control

NC(N)=NCCCC1NC(=O)C(Cc2ccc(O)cc2)NC1=O (stereo not drawn)
inactive: [1] 98 % of control and 93 % of control | [2] 100 % of control | dose: 200.0 mg/kg/injection, schedule: Q01DX005 (ip), vehicle: saline with Tween-80 100 % of control and 101 % of control

CCCCCSCN(CC)CC
inactive: [3] 103 % of control | dose: 25.0 mg/kg/injection, schedule: Q01DX009 (ip), vehicle: saline 99 % of control and 101 % of control | [4] 100 % of control and 104 % of control and 91 % of control | [5] 99 % of control and 101 % of control and 104 % of control | [6] 114 % of control | dose: 200.0 mg/kg/injection, schedule: Q01DX009 (ip), vehicle: saline 119 % of control (2×) and 120 % of control

CC(C)CC(C(=O)O)N1C(=O)C=CC1=O (stereo not drawn)
inactive: dose: 12.5 mg/kg/injection, schedule: Q01DX009 (ip), vehicle: Klucel (hydroxypropylcellulose) (HPC) 93 % of control | dose: 25.0 mg/kg/injection, schedule: Q01DX009 (ip), vehicle: Klucel (hydroxypropylcellulose) (HPC) 107 % of control

COc1ccc2cc1Oc1cc3c(cc1OC)CC[N+](C)(C)C3Cc1ccc(cc1)Oc1c(OC)c(OC)cc3c1C(C2)[N+](C)(C)CC3 (stereo not drawn)
inactive: dose: 0.03 mg/kg/injection, schedule: Q01DX009 (ip), vehicle: saline 102 % of control and 106 % of control | dose: 0.07 mg/kg/injection, schedule: Q01DX009 (ip), vehicle: saline 100 % of control and 113 % of control | dose: 0.15 mg/kg/injection, schedule: Q01DX009 (ip), vehicle: saline 105 % of control and 106 % of control and 121 % of control | dose: 0.31 mg/kg/injection, schedule: Q01DX009 (ip), vehicle: saline 105 % of control and 112 % of control and 96 % of control | dose: 0.62 mg/kg/injection, schedule: Q01DX009 (ip), vehicle: saline 118 % of control

O=[N+]([O-])c1ccc(-[n+]2ccc3ccccc3c2)c([N+](=O)[O-])c1
inactive: dose: 12.5 mg/kg/injection, schedule: Q01DX005 (ip), vehicle: saline 110 % of control | dose: 25.0 mg/kg/injection, schedule: Q01DX005 (ip), vehicle: saline 106 % of control | [7] 104 % of control and 111 % of control

CCOC(=O)/N=[N+](\[O-])c1cccc(Cl)c1
inactive: dose: 100.0 mg/kg/injection, schedule: Q01DX001 (ip), vehicle: saline with Tween-80 110 % of control | dose: 200.0 mg/kg/injection, schedule: Q01DX001 (ip), vehicle: saline with Tween-80 102 % of control

NC(=O)C1(N(CCO)CCO)CCCC1
inactive: [7] 104 % of control | dose: 100.0 mg/kg/injection, schedule: Q01DX005 (ip), vehicle: saline 98 % of control | dose: 200.0 mg/kg/injection, schedule: Q01DX005 (ip), vehicle: saline 105 % of control

FC(F)(F)c1ccc2c(c1)N(CCCN1CCN(CCCl)CC1)c1ccccc1S2
inactive: dose: 6.25 mg/kg/injection, schedule: Q04DX003 (ip), vehicle: saline 96 % of control | dose: 12.5 mg/kg/injection, schedule: Q04DX003 (ip), vehicle: saline 101 % of control | dose: 25.0 mg/kg/injection, schedule: Q04DX003 (ip), vehicle: saline 115 % of control

OC(c1cc2ccc(C(F)(F)F)cc2c2cc(C(F)(F)F)ccc12)C1CCCCN1 (stereo not drawn)
inactive: [8] 102 % of control and 107 % of control | [3] 100 % of control and 102 % of control

N=c1ccc([N+](=O)[O-])cn1O
inactive: [4] 98 % of control | [5] 96 % of control

O=C1c2ccncc2C(=O)c2c1[nH]c1ccccc21
inactive: dose: 7.5 mg/kg/injection, schedule: Q04DX002 (ip), vehicle: Klucel (hydroxypropylcellulose) (HPC) 97 % of control | dose: 15.0 mg/kg/injection, schedule: Q04DX002 (ip), vehicle: Klucel (hydroxypropylcellulose) (HPC) 95 % of control | dose: 30.0 mg/kg/injection, schedule: Q04DX002 (ip), vehicle: Klucel (hydroxypropylcellulose) (HPC) 90 % of control and 97 % of control | dose: 60.0 mg/kg/injection, schedule: Q04DX002 (ip), vehicle: Klucel (hydroxypropylcellulose) (HPC) 95 % of control

c1c2noc1CCCCCCCCC2
inactive: dose: 50.0 mg/kg/injection, schedule: Q01DX005 (ip), vehicle: Klucel (hydroxypropylcellulose) (HPC) 104 % of control | dose: 100.0 mg/kg/injection, schedule: Q01DX005 (ip), vehicle: Klucel (hydroxypropylcellulose) (HPC) 110 % of control | dose: 200.0 mg/kg/injection, schedule: Q01DX005 (ip), vehicle: Klucel (hydroxypropylcellulose) (HPC) 118 % of control

c1ccc2c(c1)CCC1=C2S/C(=C2/SC3=C(S2)c2ccccc2CC3)S1
inactive: dose: 7.5 mg/kg/injection, schedule: Q01DX005 (ip), vehicle: saline with Tween-80 94 % of control | dose: 15.0 mg/kg/injection, schedule: Q01DX005 (ip), vehicle: saline with Tween-80 100 % of control | dose: 30.0 mg/kg/injection, schedule: Q01DX005 (ip), vehicle: saline with Tween-80 100 % of control

CC(C)(C)CC(C)(C)c1ccc(OCCO)cc1
inactive: dose: 50.0 mg/kg/injection, schedule: Q04DX003 (ip), vehicle: saline 91 % of control | dose: 100.0 mg/kg/injection, schedule: Q04DX003 (ip), vehicle: saline 108 % of control

CCCCCCCCCCCCCCCCN1CCC2SC3CN(CCCCCCCCCCCCCCCC)CCC3SC2C1 (stereo not drawn)
inactive: [9] 99 % of control | [10] 96 % of control | [6] 97 % of control

CSc1nc(NC2OCC(OC(C)=O)C(OC(C)=O)C2OC(C)=O)c(N=CC=Nc2c(NC3OCC(OC(C)=O)C(OC(C)=O)C3OC(C)=O)nc(SC)n(C)c2=O)c(=O)n1C (stereo not drawn)
inactive: dose: 60.0 mg/kg/injection, schedule: Q01DX005 (ip), vehicle: saline with Tween-80 95 % of control | dose: 120.0 mg/kg/injection, schedule: Q01DX005 (ip), vehicle: saline with Tween-80 91 % of control | dose: 240.0 mg/kg/injection, schedule: Q01DX005 (ip), vehicle: saline with Tween-80 92 % of control

CCCC(C)(C(=O)Nc1ccc2nc(C)cc(N)c2c1)C(=O)Nc1ccc2nc(C)cc(N)c2c1
inactive: [1] 94 % of control | [2] 96 % of control

CCCCOc1cccc2c(NCCNc3c4ccccc4nc4c(OCCCC)cccc34)c3ccccc3nc12
inactive: dose: 0.62 mg/kg/injection, schedule: Q01DX009 (ip), vehicle: other 105 % of control | dose: 1.25 mg/kg/injection, schedule: Q01DX009 (ip), vehicle: other 109 % of control | dose: 2.5 mg/kg/injection, schedule: Q01DX009 (ip), vehicle: other 101 % of control | dose: 5.0 mg/kg/injection, schedule: Q01DX009 (ip), vehicle: other 100 % of control | dose: 10.0 mg/kg/injection, schedule: Q01DX009 (ip), vehicle: other 100 % of control

CCCCCCCCCCC(CCCCCCCCCC)c1ccccc1
inactive: dose: 75.0 mg/kg/injection, schedule: Q01DX001 (ip), vehicle: saline sonified 91 % of control | dose: 150.0 mg/kg/injection, schedule: Q01DX001 (ip), vehicle: saline sonified 95 % of control | dose: 300.0 mg/kg/injection, schedule: Q01DX001 (ip), vehicle: saline sonified 95 % of control

N#Cc1ccc(N=Cc2ccc(C=Nc3ccc(C#N)c(C#N)c3)cc2)cc1C#N
inactive: [8] 93 % of control | [3] 104 % of control | [9] 88 % of control | [10] 87 % of control | [6] 97 % of control

O=C(/C=C/c1ccc(OCc2ccccc2)cc1)c1ccc([N+](=O)[O-])cc1
inactive: [9] 99 % of control | [10] 104 % of control | [6] 102 % of control

COc1ccc(NC(=O)c2sc(SC)nc2N)cc1
inactive: dose: 50.0 mg/kg/injection, schedule: Q01DX009 (ip), vehicle: Klucel (hydroxypropylcellulose) (HPC) 100 % of control | dose: 100.0 mg/kg/injection, schedule: Q01DX009 (ip), vehicle: Klucel (hydroxypropylcellulose) (HPC) 98 % of control | dose: 200.0 mg/kg/injection, schedule: Q01DX009 (ip), vehicle: Klucel (hydroxypropylcellulose) (HPC) 97 % of control

Source: PubChem BioAssay AID330 (DTP/NCI, 2004)
